# Results taken from patent US20250000932A1, “DIAGNOSIS AND TREATMENT OF VA[…]” (University Of Maryland, Baltimore, priority 2023, published 2025).
# Test system: patients with catecholamine-resistant vasodilatory shock
# Experiment: ATHOS-3: safety (adverse events, serious adverse events)
# Assay type: in vivo, human
# Details: patients with elevated renin concentrations at baseline
# Method: The use of Angiotensin II for the Treatment of High-Output Shock 3 (ATHOS-3) study has been described by Khanna et al. and Chawla et al. In brief, adults with vasodilatory shock despite volume resuscitation with 2:25 mL/kg and high-dose vasopressors were randomly assigned 1:1 to receive synthetic human angiotensin II (La Jolla Pharmaceutical Company™) or saline placebo plus standard vasopressors. Randomization was stratified according to MAP at screening and Acute Physiology and Chronic Health Evaluation II (APACHE II) score.
# The study drug infusion started at 20 ng/kg/min and was adjusted during the first 3 hours to increase the MAP to 2:75 mm Hg while keeping other vasopressors constant. Thereafter, the study drug and other vasopressors were adjusted at the discretion of the treating ICU team to maintain a MAP between 65 and 75 mm Hg. At 48 hours, the infusion was discontinued according to a protocol-specified tapering process. However, continuation was allowed for up to 7 days at the discretion of the ICU team.
# Safety was evaluated by assessment of treatment-emergent adverse events, serious adverse events, and adverse event-related drug discontinuations.
structure (smiles),measurement,value
"CC[C@H](C)[C@H](NC(=O)[C@H](Cc1ccc(O)cc1)NC(=O)[C@@H](NC(=O)[C@H](CCCNC(=N)N)NC(=O)[C@@H](N)CC(=O)O)C(C)C)C(=O)N[C@@H](Cc1cnc[nH]1)C(=O)N1CCC[C@H]1C(=O)N[C@@H](Cc1ccccc1)C(=O)O [Angiotensin II, angiotensin II]",adverse events or serious adverse events vs placebo,no significant difference
